Laboratory results published in US10662210B2, “Compositions and methods comprising osmium for the treatment of cancers” (Massachusetts Institute of Technology, priority 2014, dated 2020).
Like-named read-outs stand apart in the source and are kept apart here.

Tests used:
A2780 cells = test: Cytotoxicity MTT assay with pathway and cell death inhibitors; type: cell-based, human; details: for IC50: 72 hours incubation; for effect of chloroquine and IM-54 on potency: inhibitors 10 μM; for effect of p53 inhibitors on toxicity: pifithrin-α and pifithrin-μ, both 10 μM
Procedure: (§1) This finding led to the investigation of the possibility that 4 may induce endoplasmic reticulum (ER) stress. Co-administration of 4 and salubrinal (10 μM), a known ER stress inhibitor, reduced the cytotoxicity of 4 in A2780 cells. […] To further validate the ER as the main target for 4, the expression of proteins related to the unfolded protein response (UPR) was monitored. […] ER membrane expansion is widely associated with ER stress. With this fact in mind the ER size of A2780 cells upon incubation with 4 were examined using fluorescence microscopy. Relative to untreated controls (FIG. 3B), cells exposed to 4 (10 μM) for 4 h had 25.1% larger ER coverage (FIG. 3C). The ER size relative to the whole cell of the untreated controls was about 30% and the ER size relative to the whole cell of the treated samples was about 55%.
Having established the intracellular targets of 2 and 4, the role of p53, a cell cycle and apoptosis regulator, in the cellular responses evoked was investigated. […] Therefore, p53 played a fundamental role in coordinating the cellular response to 2-induced DNA damage. […] (FIG. 13). […] To relate p53 to potency, cytotoxicity studies were conducted in the presence of p53 inhibitors pifithrin-α and pifithrin-μ. (both 10 μM). […] The IC50 values of compound 2 in the absence and presence of p53 inhibitor pifithrin-μ after 72 hours incubation was about 2 μM and about 30 μM, respectively.
(§2) The colorimetric MTT assay was used to determine the toxicity of the osmium complexes and cisplatin. Cells (2×10^3) were seeded in each well of a 96-well plate. After incubating the cells overnight, various concentrations of test compound (0.3-100 μM) were added and incubated for 72 h (total volume 200 μL). The test compounds were prepared as 10 mM solutions in DMSO and diluted using media. The final concentration of DMSO in each well was 0.5% and this amount was present in the untreated control as well. Cisplatin was prepared as a 5 mM solution in PBS and diluted further using media. After 72 h, the medium was removed, 200 μL of a 0.4 mg/mL solution of MTT in DMEM or RPMI was added, and the plate was incubated for an additional 1-2 h. The DMEM/MTT or RPMI/MTT mixture was aspirated and 200 μL of DMSO was added to dissolve the resulting purple formazan crystals. The absorbance of the solution wells was read at 550 nm. Absorbance values were normalized to DMSO-containing control wells and plotted as concentration of test compound versus % cell viability. IC50 values were interpolated from the resulting dose dependent curves. The reported IC50 values are the average from at least three independent experiments, each of which consisted of six replicates per concentration level.
For specific pathway and cell death inhibitor assays, inhibitors of p53 (pifithrin-α, 10 μM and pifithrin-μ, 10 μM), ER stress (salubrinal, 10 μM), necrosis (IM-54, 10 μM), and autophagocytosis (chloroquine, 10 μM) were added to cells and incubated for 0-1 h prior to treatment with the test compounds.

[1] = system: cleaved caspase 3, 7, 9 and PARP in A2780 cells; test: Immunoblotting analysis, apoptosis pathway; type: cell-based, human; details: 72 h
Procedure: To have a more complete understanding of the cellular response induced by 2 or 4, their mode of cell killing was evaluated. Many clinically approved cancer drugs exert their cytotoxic effects through apoptosis, and so the features related to this pathway were monitored. Apoptotic cells underwent morphological changes that lead to cell membrane disorientation. […] Cells can undergo other forms of cell death such as necrosis and autophagy. To probe these pathways, cytotoxicity assays were carried out in the presence of […], chloroquine, and IM-54, respectively. Because both chloroquine and IM-54 had little effect on the potency of either of the osmium complexes, necrosis and autophagy were ruled out as possible death pathways. […] On the other hand, 4 initiated ER stress, culminating in p53 independent, caspase directed apoptosis (FIG. 4).
(§3) A2780 cells (5×10^5 cells) were incubated with the osmium complexes (concentrations, μM) for 72 h at 37° C. […] After incubation with horseradish peroxidase-conjugated secondary antibodies (Cell Signalling Technology), immune complexes were detected with the ECL detection reagent (BioRad) and analyzed using an Alpha Innotech ChemiImager™ 5500 fitted with a chemiluminescence filter.

A2780/CP70 (ovarian) = test: Cytotoxicity MTT assay; type: cell-based, human; details: 72 h, cisplatin-resistant
Procedure: (§4) The anti-proliferative properties of 1-4 against a panel of human cancer cell lines were assessed by the MTT [3-(4,5-dimethylthiazol-2-yl)-2,5-diphenyltetrazolium bromide] assay. Cisplatin was included as a control. The IC50 values, concentrations required to induce 50% viability, were derived from dose-response curves and are summarized in Table 1.
(§5) A549 lung adenocarcinoma, HeLa cervical cancer, and MRC5 normal human fetal lung fibroblast cell lines were maintained in Dulbecco's Modified Eagle's Medium (DMEM-low glucose) supplemented with 10% fetal bovine serum and 1% penicillin/streptomycin. The cisplatin-sensitive A2780 ovarian cancer and the cisplatin-resistant A2780/CP70 ovarian cancer cell lines were cultured in RPMI (glutamine free) media supplemented with 10% fetal bovine serum and 1% penicillin/streptomycin. All cells were grown at 310 K in a humidified atmosphere containing 5% CO2.
as §2

HeLa (cervical) = test: Cytotoxicity MTT assay; type: cell-based, human; details: 72 h
Procedure: as §4, §5, §2

MRC-5 (lung normal) = test: Cytotoxicity MTT assay; type: cell-based, human; details: 72 h
Procedure: as §4, §5, §2

A549 (lung) = test: Cytotoxicity MTT assay; type: cell-based, human; details: 72 h
Procedure: as §4, §5, §2

A2780 (ovarian) = test: Cytotoxicity MTT assay; type: cell-based, human; details: for IC50: MTT, 72 h
Procedure: as §4, §5, §2

[2] = system: Eμ-Mycp19arf−/− lymphoma cells; test: RNAi signatures, GFP competition assay; details: for shChk2 log 2(RI) value / shp53 log 2(RI) value: LD80-90 concentration; for RNAi signature classification against reference set: probabilistic K-nearest neighbors
Description: This RNAi-based methodology relied on a fluorescence competition assay involving lymphoma cells that were partially infected with one of eight distinct short hairpin RNAs (shRNAs). shRNA-bearing cells will either enrich or deplete relative to the uninfected population based on drug survival advantage or disadvantage conferred by a given shRNA. […] The signature of a novel compound was compared to those of a reference set of drugs using a probabilistic K-nearest neighbors algorithm to determine whether it belonged to a class in the reference set or a new category that was not represented in the reference set.
Compounds were dosed to achieve an LD80-90 in Eμ-Myc^p19arf−/− cells by propidium iodide exclusion as determined by FACS after a 48 h incubation. GFP enrichment/depletion was then determined by FACS at 72 h. […] All FACS was conducted using a FACScan (BD Biosciences).
Eμ-Myc^p19arf−/− lymphoma or p185+ BCR-Abl^p19arf−/− leukemia cells were infected with GFP-tagged shRNAs such that 15-25% of the population were GFP positive. An eighth of a million cells in 250 μL B-cell media (BCM) were then seeded into 24-well plates. For wells that would remain untreated as a control, only 1/16th of a million cells were seeded. Next, 250 μL of media containing the active agent was added to the cells. After 24 h, 300 μL of cells from untreated wells are removed and replaced by 300 μL fresh BCM. All wells then received 500 μL BCM before being placed by in the incubator for another 24 h. At 48 h, cells transduced with the control vector, MLS, were checked for viability via FACS on a FACScan (BD Biosciences) using propidium iodide as a live/dead marker. Untreated wells then had 700 μL of cells removed and replaced with 700 μL fresh media followed by a further 1 mL of fresh media. […] Finally, at 72 h, all wells for which an LD80-90 was achieved, as well as the untreated samples, were analyzed via FACS to determine GFP % enrichment.

[3] = system: phosphorylated eIF2α and CHOP in A2780 cells; test: Immunoblotting analysis, unfolded protein response; type: cell-based, human; details: 72 hours
Procedure: as §1
as §3, with “C. Cells were washed with PBS, scraped into SDS-PAGE loading buffer (64 mM Tris-HCl (pH6.8)/9.6% glycerol/2% SDS/5% β-mercaptoethanol/0.01% Bromophenol Blue), and incubated at 95° C. for 10 min.” for “C.”

| Structure (SMILES) | IC50 (A2780 cells; read-out: IC50 in the absence of pifithrin-α) | IC50 (A2780 cells; read-out: IC50 in the absence of pifithrin-μ) | effect of chloroquine and IM-54 on potency (A2780 cells) | IC50 (A2780 cells; pifithrin-α 10 μM, read-out: IC50 in the presence of pifithrin-α) | effect of p53 inhibitors on toxicity (A2780 cells) | IC50 (A2780 cells; pifithrin-μ 10 μM, read-out: IC50 in the presence of pifithrin-μ) | effect of salubrinal on toxicity (A2780 cells; salubrinal 10 μM) | expression of apoptosis positive proteins [1] | IC50 (A2780/CP70 (ovarian)) | IC50 (HeLa (cervical)) | IC50 (MRC-5 (lung normal)) | IC50 (A549 (lung)) | higher potency for A2780 than for normal lung fibroblast MRC5 (A2780 (ovarian); A2780 vs MRC5) | IC50 (A2780 (ovarian)) | shChk2 log 2(RI) value [2] | shp53 log 2(RI) value [2] | RNAi signature classification against reference set [2] | phosphorylated eIF2α and CHOP expression [3] | IC50 increase on co-administration of salubrinal compared to compound alone (A2780 cells; salubrinal 10 μM) |
| --- | --- | --- | --- | --- | --- | --- | --- | --- | --- | --- | --- | --- | --- | --- | --- | --- | --- | --- | --- |
| [N]#[Os]1([Cl])([Cl])([Cl])[N]2C=CC=c3ccc4c(c32)[N]1C=CC=4 [Complex 2, OsN(1,10-phenanthroline)Cl3] | ~4.5 µM | ~2 µM | little effect | ~2 µM | increased significantly | ~30 µM | limited effect | expressed apoptosis positive proteins, cleaved caspase 3, 7, 9, and poly ADP ribose polymerase (PARP) | 2.96 ± 0.23 µM | 6.95 ± 0.53 µM | 16.6 ± 3.61 µM | 7.86 ± 1.41 µM | 8 fold | 1.99 ± 0.23 µM | 2.6 | 2.7 | represented novel mechanisms of drug action | little effect |  |
| [N]#[Os]1([Cl])([Cl])([Cl])[N]2C=CC(c3ccccc3)=c3ccc4c(c32)[N]1C=CC=4c1ccccc1 [Complex 4, OsN(4,7-diphenyl-1,10-phenanthroline)Cl3] |  |  | little effect |  | unaffected |  |  | expressed apoptosis positive proteins, cleaved caspase 3, 7, 9, and poly ADP ribose polymerase (PARP) | 3.4 ± 0.28 µM | 2.86 ± 0.51 µM | 8.45 ± 1.21 µM | 1.97 ± 0.02 µM |  | 3.36 ± 0.09 µM | 0.73 | 1.32 | represented novel mechanisms of drug action | upregulated | 13.3 fold |
